ChEMBL document CHEMBL5678812, “Inhibitors of p21-activated kinases (PAKs)” (J Med Chem, 2015)

Assays:
[1] = target: SRSF protein kinase 1 (Homo sapiens) (UniProt Q96SB4); test: Inhibition of SRPK1 (unknown origin) at 0.1 uM relative to control
[2] = target: cGMP-dependent protein kinase 1 (Homo sapiens) (UniProt Q13976); test: Inhibition of PKG1alpha (unknown origin) at 0.1 uM relative to control
[3] = target: Tyrosine-protein kinase JAK1 (Homo sapiens) (UniProt P23458); test: Inhibition of JAK1 (unknown origin) at 0.1 uM relative to control
[4] = target: Ephrin type-B receptor 3 (Homo sapiens) (UniProt P54753); test: Inhibition of EphB3 (unknown origin) at 0.1 uM relative to control
[5] = target: Inhibitor of nuclear factor kappa-B kinase subunit epsilon (Homo sapiens) (UniProt Q14164); test: Inhibition of IKKepsilon (unknown origin) at 0.1 uM relative to control
[6] = target: Insulin receptor (Homo sapiens) (UniProt P06213); test: Inhibition of InsR (unknown origin) at 0.1 uM relative to control
[7] = target: G protein-coupled receptor kinase 6 (Homo sapiens) (UniProt P43250); test: Inhibition of GRK6 (unknown origin) at 0.1 uM relative to control
[8] = target: Serine/threonine-protein kinase BRSK1 (Homo sapiens) (UniProt Q8TDC3); test: Inhibition of BrSK1 (unknown origin) at 0.1 uM relative to control
[9] = target: Protein kinase C epsilon type (Homo sapiens) (UniProt Q02156); test: Inhibition of PKCepsilon (unknown origin) at 0.1 uM relative to control
[10] = target: Tyrosine-protein kinase Lck (Homo sapiens) (UniProt P06239); test: Inhibition of Lck (unknown origin) at 0.1 uM relative to control
[11] = target: Tyrosine-protein kinase Yes (Homo sapiens) (UniProt P07947); test: Inhibition of Yes (unknown origin) at 0.1 uM relative to control
Homo sapiens [12] = species on record: Homo sapiens; test: Inhibition of CDK2/cyclinA (unknown origin) at 0.1 uM relative to control
[13] = target: Phosphorylase b kinase gamma catalytic chain, liver/testis isoform (Homo sapiens) (UniProt P15735); test: Inhibition of PhKgamma2 (unknown origin) at 0.1 uM relative to control
[14] = target: Serine/threonine-protein kinase PLK1 (Homo sapiens) (UniProt P53350); test: Inhibition of PLK1 (unknown origin) at 0.1 uM relative to control
[15] = target: Dual specificity tyrosine-phosphorylation-regulated kinase 1B (Homo sapiens) (UniProt Q9Y463); test: Inhibition of DYRK1B (unknown origin) at 0.1 uM relative to control
[16] = target: Casein kinase I isoform alpha (Homo sapiens) (UniProt P48729); test: Inhibition of CK1alpha1 (unknown origin) at 0.1 uM relative to control
[17] = target: Dual specificity protein kinase CLK3 (Homo sapiens) (UniProt P49761); test: Inhibition of CLK3 (unknown origin) at 0.1 uM relative to control
[18] = target: Protein kinase C zeta type (Homo sapiens) (UniProt Q05513); test: Inhibition of PKCzeta (unknown origin) at 0.1 uM relative to control
[19] = target: MAP kinase-activated protein kinase 5 (Homo sapiens) (UniProt Q8IW41); test: Inhibition of PRAK (unknown origin) at 0.1 uM relative to control
[20] = target: Cyclin-dependent kinase 5/CDK5 activator 1 (Homo sapiens) (UniProt Q00535+Q15078); test: Inhibition of CDK5/p25 (unknown origin) at 0.1 uM relative to control; format: protein-complex assay
[21] = target: Leukocyte tyrosine kinase receptor (Homo sapiens) (UniProt P29376); test: Inhibition of LTK (unknown origin) at 0.1 uM relative to control
[22] = target: BDNF/NT-3 growth factors receptor (Homo sapiens) (UniProt Q16620); test: Inhibition of TrkB (unknown origin) at 0.1 uM relative to control
[23] = target: Phosphatidylinositol 4,5-bisphosphate 3-kinase catalytic subunit delta isoform (Homo sapiens) (UniProt O00329); test: Inhibition of PI3Kdelta (unknown origin) at 0.1 uM relative to control
[24] = target: Serine/threonine-protein kinase 3 (Homo sapiens) (UniProt Q13188); test: Inhibition of MST2 (unknown origin) at 0.1 uM relative to control
[25] = target: Tyrosine-protein kinase Fgr (Homo sapiens) (UniProt P09769); test: Inhibition of Fgr (unknown origin) at 0.1 uM relative to control
[26] = target: cAMP-dependent protein kinase catalytic subunit PRKX (Homo sapiens) (UniProt P51817); test: Inhibition of PrKX (unknown origin) at 0.1 uM relative to control
[27] = target: Serine/threonine-protein kinase Nek2 (Homo sapiens) (UniProt P51955); test: Inhibition of NEK2 (unknown origin) at 0.1 uM relative to control
[28] = target: Tyrosine-protein kinase ITK/TSK (Homo sapiens) (UniProt Q08881); test: Inhibition of Itk (unknown origin) at 0.1 uM relative to control
[29] = target: Rho-associated protein kinase 2 (Homo sapiens) (UniProt O75116); test: Inhibition of ROCK2 (unknown origin) at 0.1 uM relative to control
[30] = target: Serine/threonine-protein kinase Nek4 (Homo sapiens) (UniProt P51957); test: Inhibition of NEK4 (unknown origin) at 0.1 uM relative to control
TAK1/TAB1 (Homo sapiens) = TAK1/TAB1 (Homo sapiens) (UniProt Q15750+O43318); test: Inhibition of TAK1-TAB1 (unknown origin) at 0.1 uM relative to control; format: protein-complex assay
Homo sapiens [31] = species on record: Homo sapiens; test: Inhibition of KHS1 (unknown origin) at 0.1 uM relative to control
[32] = target: Angiopoietin-1 receptor (Homo sapiens) (UniProt Q02763); test: Inhibition of Tie2 (unknown origin) at 0.1 uM relative to control
[33] = target: NUAK family SNF1-like kinase 1 (Homo sapiens) (UniProt O60285); test: Inhibition of ARK5 (unknown origin) at 0.1 uM relative to control
[34] = target: Serine/threonine-protein kinase 26 (Homo sapiens) (UniProt Q9P289); test: Inhibition of MST4 (unknown origin) at 0.1 uM relative to control
[35] = target: Cyclin-dependent kinase 7/ cyclin H (Homo sapiens) (UniProt P51946+P50613); test: Inhibition of CDK7/CyclinH (unknown origin) at 0.1 uM relative to control; format: protein-complex assay
[36] = target: Serine/threonine-protein kinase WNK2 (Homo sapiens) (UniProt Q9Y3S1); test: Inhibition of WNK2 (unknown origin) at 0.1 uM relative to control
[37] = target: Ephrin type-B receptor 1 (Homo sapiens) (UniProt P54762); test: Inhibition of EphB1 (unknown origin) at 0.1 uM relative to control
[38] = target: LIM domain kinase 1 (Homo sapiens) (UniProt P53667); test: Inhibition of LIMK1 (unknown origin) at 0.1 uM relative to control

Sequence of cAMP-dependent protein kinase catalytic subunit PRKX (Homo sapiens) (P51817 whole entry): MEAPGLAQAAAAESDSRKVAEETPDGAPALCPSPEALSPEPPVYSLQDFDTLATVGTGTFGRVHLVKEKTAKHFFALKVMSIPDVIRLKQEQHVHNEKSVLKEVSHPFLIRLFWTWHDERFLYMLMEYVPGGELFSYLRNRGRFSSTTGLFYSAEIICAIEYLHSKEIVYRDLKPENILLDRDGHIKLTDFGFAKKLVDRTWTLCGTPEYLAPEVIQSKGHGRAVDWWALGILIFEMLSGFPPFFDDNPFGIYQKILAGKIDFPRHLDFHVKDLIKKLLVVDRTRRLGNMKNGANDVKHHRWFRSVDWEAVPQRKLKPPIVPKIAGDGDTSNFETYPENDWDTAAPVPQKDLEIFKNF
Sequence of Phosphatidylinositol 4,5-bisphosphate 3-kinase catalytic subunit delta isoform (Homo sapiens) (O00329 whole entry, canonical isoform): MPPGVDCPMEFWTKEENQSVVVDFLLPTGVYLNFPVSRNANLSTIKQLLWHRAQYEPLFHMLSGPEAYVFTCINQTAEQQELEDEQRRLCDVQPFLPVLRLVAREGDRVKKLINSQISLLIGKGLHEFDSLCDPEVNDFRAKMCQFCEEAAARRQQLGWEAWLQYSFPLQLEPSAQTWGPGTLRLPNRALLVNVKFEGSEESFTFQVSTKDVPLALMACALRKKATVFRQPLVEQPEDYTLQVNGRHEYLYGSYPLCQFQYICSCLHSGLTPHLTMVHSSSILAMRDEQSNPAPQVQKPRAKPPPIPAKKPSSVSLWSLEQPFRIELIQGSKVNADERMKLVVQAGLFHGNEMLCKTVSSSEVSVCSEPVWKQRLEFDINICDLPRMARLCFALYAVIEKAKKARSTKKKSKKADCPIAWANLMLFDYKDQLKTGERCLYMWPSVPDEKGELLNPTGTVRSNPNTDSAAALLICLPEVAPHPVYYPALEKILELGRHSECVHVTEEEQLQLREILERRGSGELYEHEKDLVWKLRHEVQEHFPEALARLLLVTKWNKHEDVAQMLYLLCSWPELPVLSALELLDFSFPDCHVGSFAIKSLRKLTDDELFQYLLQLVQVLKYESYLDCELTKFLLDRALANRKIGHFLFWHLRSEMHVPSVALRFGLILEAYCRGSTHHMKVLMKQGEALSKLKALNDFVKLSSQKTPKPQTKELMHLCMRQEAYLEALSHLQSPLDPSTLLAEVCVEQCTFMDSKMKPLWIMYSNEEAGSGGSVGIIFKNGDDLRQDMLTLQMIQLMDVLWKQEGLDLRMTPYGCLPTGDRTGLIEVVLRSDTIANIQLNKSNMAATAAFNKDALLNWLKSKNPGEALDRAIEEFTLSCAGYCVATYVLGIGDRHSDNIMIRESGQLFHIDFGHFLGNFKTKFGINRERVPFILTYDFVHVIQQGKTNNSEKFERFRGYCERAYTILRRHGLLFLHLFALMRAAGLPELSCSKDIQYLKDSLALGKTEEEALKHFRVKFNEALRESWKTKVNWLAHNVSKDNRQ
Sequence of Serine/threonine-protein kinase BRSK1 (Homo sapiens) (Q8TDC3 whole entry): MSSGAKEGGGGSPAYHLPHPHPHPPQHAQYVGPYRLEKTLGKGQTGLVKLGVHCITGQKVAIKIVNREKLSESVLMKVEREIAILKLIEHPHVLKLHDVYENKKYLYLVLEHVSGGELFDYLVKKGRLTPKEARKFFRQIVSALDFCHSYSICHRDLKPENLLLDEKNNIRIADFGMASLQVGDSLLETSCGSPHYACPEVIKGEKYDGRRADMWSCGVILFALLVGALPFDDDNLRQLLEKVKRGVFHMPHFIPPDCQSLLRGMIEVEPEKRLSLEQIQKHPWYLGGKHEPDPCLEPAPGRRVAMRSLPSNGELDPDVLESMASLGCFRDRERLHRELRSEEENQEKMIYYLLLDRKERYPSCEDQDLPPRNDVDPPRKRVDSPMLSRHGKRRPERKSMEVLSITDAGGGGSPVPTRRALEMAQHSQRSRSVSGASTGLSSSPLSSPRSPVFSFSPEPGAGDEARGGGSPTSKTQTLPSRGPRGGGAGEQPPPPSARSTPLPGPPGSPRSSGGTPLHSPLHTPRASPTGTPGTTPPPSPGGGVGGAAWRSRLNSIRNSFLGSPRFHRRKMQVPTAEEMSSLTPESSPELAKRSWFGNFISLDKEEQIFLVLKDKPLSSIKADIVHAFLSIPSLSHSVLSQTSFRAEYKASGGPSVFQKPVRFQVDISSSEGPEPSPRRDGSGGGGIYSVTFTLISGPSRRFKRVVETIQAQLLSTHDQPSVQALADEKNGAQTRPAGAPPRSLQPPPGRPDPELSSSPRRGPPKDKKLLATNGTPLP
Sequence of Inhibitor of nuclear factor kappa-B kinase subunit epsilon (Homo sapiens) (Q14164 whole entry): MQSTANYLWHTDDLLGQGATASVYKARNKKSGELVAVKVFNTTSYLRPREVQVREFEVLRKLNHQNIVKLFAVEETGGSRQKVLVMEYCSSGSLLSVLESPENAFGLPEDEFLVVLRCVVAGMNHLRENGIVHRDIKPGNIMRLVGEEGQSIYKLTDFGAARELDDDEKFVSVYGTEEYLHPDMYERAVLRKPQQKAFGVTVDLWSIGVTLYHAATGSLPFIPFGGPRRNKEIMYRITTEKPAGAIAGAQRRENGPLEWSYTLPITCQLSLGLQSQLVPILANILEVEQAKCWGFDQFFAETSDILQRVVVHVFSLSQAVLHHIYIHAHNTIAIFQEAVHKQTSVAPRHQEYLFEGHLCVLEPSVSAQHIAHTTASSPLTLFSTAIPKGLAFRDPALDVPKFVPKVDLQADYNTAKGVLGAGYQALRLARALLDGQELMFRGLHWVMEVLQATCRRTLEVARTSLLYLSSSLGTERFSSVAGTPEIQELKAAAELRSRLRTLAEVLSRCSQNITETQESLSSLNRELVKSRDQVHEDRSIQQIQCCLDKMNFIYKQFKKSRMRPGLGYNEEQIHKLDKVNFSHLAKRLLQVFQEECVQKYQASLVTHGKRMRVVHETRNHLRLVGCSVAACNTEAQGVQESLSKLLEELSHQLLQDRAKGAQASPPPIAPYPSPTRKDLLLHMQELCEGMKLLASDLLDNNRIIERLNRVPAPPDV
Sequence of Protein kinase C epsilon type (Homo sapiens) (Q02156 whole entry): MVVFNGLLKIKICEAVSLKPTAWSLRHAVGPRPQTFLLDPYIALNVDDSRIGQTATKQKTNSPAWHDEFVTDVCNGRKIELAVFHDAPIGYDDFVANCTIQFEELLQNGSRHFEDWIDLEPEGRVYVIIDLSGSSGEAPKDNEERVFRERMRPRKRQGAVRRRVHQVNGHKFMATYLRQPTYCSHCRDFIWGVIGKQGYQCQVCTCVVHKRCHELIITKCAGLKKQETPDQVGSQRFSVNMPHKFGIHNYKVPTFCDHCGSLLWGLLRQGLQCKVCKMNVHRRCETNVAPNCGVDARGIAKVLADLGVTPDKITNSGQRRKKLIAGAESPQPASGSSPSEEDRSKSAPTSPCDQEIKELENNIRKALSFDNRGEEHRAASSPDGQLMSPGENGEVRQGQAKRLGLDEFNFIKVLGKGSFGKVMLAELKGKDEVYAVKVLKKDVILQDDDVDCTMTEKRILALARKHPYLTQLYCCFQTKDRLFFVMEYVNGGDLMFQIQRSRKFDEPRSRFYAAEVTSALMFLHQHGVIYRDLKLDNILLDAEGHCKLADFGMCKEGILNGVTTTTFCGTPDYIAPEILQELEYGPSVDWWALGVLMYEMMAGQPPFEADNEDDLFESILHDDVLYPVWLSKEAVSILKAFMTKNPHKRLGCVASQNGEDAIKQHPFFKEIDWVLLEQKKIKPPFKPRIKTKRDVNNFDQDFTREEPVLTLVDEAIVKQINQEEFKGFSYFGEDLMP
Sequence of Casein kinase I isoform alpha (Homo sapiens) (P48729 2-337 limits assumed): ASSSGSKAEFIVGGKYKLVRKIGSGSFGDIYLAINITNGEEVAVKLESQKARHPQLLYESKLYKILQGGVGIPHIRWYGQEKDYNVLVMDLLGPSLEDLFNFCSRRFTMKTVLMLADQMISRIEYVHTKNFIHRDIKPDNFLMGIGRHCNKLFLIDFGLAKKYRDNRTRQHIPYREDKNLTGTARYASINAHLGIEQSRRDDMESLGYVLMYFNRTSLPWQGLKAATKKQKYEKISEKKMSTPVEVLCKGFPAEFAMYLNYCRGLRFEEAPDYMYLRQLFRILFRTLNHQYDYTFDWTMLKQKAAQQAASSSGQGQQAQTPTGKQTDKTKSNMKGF
Sequence of cGMP-dependent protein kinase 1 (Homo sapiens) (Q13976 whole entry): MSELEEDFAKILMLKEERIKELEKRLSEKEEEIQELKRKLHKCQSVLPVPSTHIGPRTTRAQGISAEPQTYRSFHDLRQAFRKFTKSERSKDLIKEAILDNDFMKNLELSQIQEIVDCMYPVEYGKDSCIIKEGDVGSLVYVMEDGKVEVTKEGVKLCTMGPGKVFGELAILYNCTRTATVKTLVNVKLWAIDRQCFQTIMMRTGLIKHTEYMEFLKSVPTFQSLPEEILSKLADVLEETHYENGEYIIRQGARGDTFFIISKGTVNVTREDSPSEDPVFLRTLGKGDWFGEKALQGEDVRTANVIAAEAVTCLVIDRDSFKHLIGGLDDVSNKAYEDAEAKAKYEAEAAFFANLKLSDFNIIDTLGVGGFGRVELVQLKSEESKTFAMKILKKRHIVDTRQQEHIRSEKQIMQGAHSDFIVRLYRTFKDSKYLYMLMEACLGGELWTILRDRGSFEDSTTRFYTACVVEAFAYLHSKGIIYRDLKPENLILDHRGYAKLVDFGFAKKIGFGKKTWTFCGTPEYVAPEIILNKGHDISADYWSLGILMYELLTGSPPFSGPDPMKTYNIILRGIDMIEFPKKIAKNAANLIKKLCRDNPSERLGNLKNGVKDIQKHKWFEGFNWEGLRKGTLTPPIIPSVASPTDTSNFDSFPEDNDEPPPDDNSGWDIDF
Sequence of Phosphorylase b kinase gamma catalytic chain, liver/testis isoform (Homo sapiens) (P15735 whole entry, canonical isoform): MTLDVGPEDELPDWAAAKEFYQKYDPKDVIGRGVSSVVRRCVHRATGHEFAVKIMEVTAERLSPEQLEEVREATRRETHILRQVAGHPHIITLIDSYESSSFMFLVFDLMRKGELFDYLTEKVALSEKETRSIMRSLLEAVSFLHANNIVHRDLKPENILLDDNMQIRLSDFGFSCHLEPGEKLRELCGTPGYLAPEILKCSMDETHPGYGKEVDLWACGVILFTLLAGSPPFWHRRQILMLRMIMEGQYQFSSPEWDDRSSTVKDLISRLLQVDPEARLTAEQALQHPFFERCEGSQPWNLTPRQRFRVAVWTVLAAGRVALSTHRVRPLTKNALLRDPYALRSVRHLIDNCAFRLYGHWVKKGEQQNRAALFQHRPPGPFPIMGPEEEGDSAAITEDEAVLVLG

COCCNc1nc2ccc(C#CC3(O)CCCCC3)cc2n1-c1ccnc(N)n1
inhibition [1]: 5.4% | inhibition [2]: 9.3% | inhibition [3]: 0.1% | inhibition [4]: 5.5% | inhibition [5]: 6% | inhibition [6]: 3.5% | inhibition [7]: 11.7% | inhibition [8]: 4.6% | inhibition [9]: 8.3% | inhibition [10]: 7.6% | inhibition [11]: -1.4% | inhibition (Homo sapiens [12]): 1.9% | inhibition [13]: 17.3% | inhibition [14]: -2% | inhibition [15]: 0.5% | inhibition [16]: 8.8% | inhibition [17]: 8.9% | inhibition [18]: 22.8% | inhibition [19]: 5% | inhibition [20]: 4.3% | inhibition [21]: -0.9% | inhibition [22]: 15.1% | inhibition [23]: -4.8% | inhibition [24]: 8.8% | inhibition [25]: 3.6% | inhibition [26]: 5.3% | inhibition [27]: 6.3% | inhibition [28]: 4% | inhibition [29]: 0.5% | inhibition [30]: 2%

CN1CCc2cc(-c3cnc4[nH]cc(C(=O)c5ccccc5Cl)c4c3)ccc2C1
inhibition (TAK1/TAB1 (Homo sapiens)): 27.9% | inhibition (Homo sapiens [31]): 105% | inhibition [32]: 24.8% | inhibition [33]: 85.5% | inhibition [34]: 82% | inhibition [35]: 31% | inhibition [36]: 0% | inhibition [37]: 93% | inhibition [38]: 42.4%
